Results as given in patent publication US20250186437A1, “CARBOLINE COMPOUNDS AND USE THEREOF” (PTC Therapeutics, Inc., priority 2021, published 2025).

What follows are compounds tested on MOLM-13 cells (assay: MOLM-13 Cell Proliferation Assay (indicator of DHODH inhibition)). Conditions: Homo sapiens, 72 Hours of culture, CellTiter-Glo, no uridine.
Type: cell-based
How it was run: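 Proliferation readout via CellTiter-Glo luminescence after 72 h compound treatment (37 °C, 5% CO2, 0.5% DMSO) of MOLM-13 cells seeded at 10^4 per well in RPMI 1640/10% FBS, used as a DHODH-inhibition indicator since these cells rely on de novo pyrimidine synthesis.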

IC50 | Structure (SMILES)
1.4 nM | FC(F)(F)c1nc(N2CCc3c([nH]c4ccc(-n5nccn5)cc34)[C@@H]2c2cnc(N3CCOCC3)nc2)nc(C(F)(F)F)n1 [Compound 516, (1S)-2-[4,6-bis(trifluoromethyl)-1,3,5-triazin-2-yl]-1-[2-(morpholin-4-yl)pyrimidin-5-yl]-6-(2H-1,2,3-triazol-2-yl)-2,3,4,9-tetrahydro-1H-pyrido[3,4-b]indole]
8 nM | Cc1nc(N2CCc3c([nH]c4ccc(Cl)cc34)C2c2ccc(N3CCOCC3)nc2)ncc1F (stereo not drawn) [Compound 365, 6-chloro-2-(5-fluoro-4-methylpyrimidin-2-yl)-1-[6-(morpholin-4-yl)pyridin-3-yl]-2,3,4,9-tetrahydro-1H-pyrido[3,4-b]indole]
5.2 nM | CSc1ncc(C2c3[nH]c4ccc(Cl)cc4c3CCN2c2nc(C)nc(C)n2)cn1 (stereo not drawn) [Compound 346, 6-chloro-2-(4,6-dimethyl-1,3,5-triazin-2-yl)-1-[2-(methylsulfanyl)pyrimidin-5-yl]-2,3,4,9-tetrahydro-1H-pyrido[3,4-b]indole]
0.6 nM | Cc1nc(N2CCc3c([nH]c4ccc(Cl)cc34)C2c2ccc(C)c(F)c2F)nc(C(F)(F)F)n1 (stereo not drawn) [Compound 438, 6-chloro-1-(2,3-difluoro-4-methylphenyl)-2-[4-methyl-6-(trifluoromethyl)-1,3,5-triazin-2-yl]-2,3,4,9-tetrahydro-1H-pyrido[3,4-b]indole]
5.6 nM | Cc1nc(C)nc(N2CCc3c([nH]c4c(N)cc(Cl)cc34)C2c2cnc(N3CCOCC3)nc2)n1 (stereo not drawn) [Compound 309, 6-chloro-2-(4,6-dimethyl-1,3,5-triazin-2-yl)-1-[2-(morpholin-4-yl)pyrimidin-5-yl]-2,3,4,9-tetrahydro-1H-pyrido[3,4-b]indol-8-amine]
1.1 nM | Cc1ccc([C@H]2c3[nH]c4ccc(Cl)cc4c3CCN2c2ncc(Br)cn2)c(F)c1F [Compound 463, (1S)-2-(5-bromopyrimidin-2-yl)-6-chloro-1-(2,3-difluoro-4-methylphenyl)-2,3,4,9-tetrahydro-1H-pyrido[3,4-b]indole]
3.6 nM | O=[N+]([O-])c1ccc2[nH]c3c(c2c1)CCN(c1nccc(C(F)(F)F)n1)C3c1cnc(N2CCOCC2)nc1 (stereo not drawn) [Compound 323, 1-[2-(morpholin-4-yl)pyrimidin-5-yl]-6-nitro-2-[4-(trifluoromethyl)pyrimidin-2-yl]-2,3,4,9-tetrahydro-1H-pyrido[3,4-b]indole]
1.1 nM | N#Cc1cc(C(F)(F)F)nc(N2CCc3c([nH]c4ccc(Cl)cc34)[C@@H]2c2ccc(N3CCOCC3)nc2)n1 [Compound 433, 2-{(1S)-6-chloro-1-[6-(morpholin-4-yl)pyridin-3-yl]-1,3,4,9-tetrahydro-2H-pyrido[3,4-b]indol-2-yl}-6-(trifluoromethyl)pyrimidine-4-carbonitrile]
2.7 nM | Fc1cc(Cl)ccc1C1c2[nH]c3ccc(Cl)cc3c2CCN1c1nccc(C(F)(F)F)n1 (stereo not drawn) [Compound 267, 6-chloro-1-(4-chloro-2-fluorophenyl)-2-[4-(trifluoromethyl)pyrimidin-2-yl]-2,3,4,9-tetrahydro-1H-pyrido[3,4-b]indole]
7 nM | COc1ccc2[nH]c3c(c2c1)CCN(c1nccc(C(F)(F)F)n1)C3c1cnc(N2CCOCC2)nc1 (stereo not drawn) [Compound 302, 6-methoxy-1-[2-(morpholin-4-yl)pyrimidin-5-yl]-2-[4-(trifluoromethyl)pyrimidin-2-yl]-2,3,4,9-tetrahydro-1H-pyrido[3,4-b]indole]
1.2 nM | FC(F)(F)c1ccnc(N2CCc3c([nH]c4ccc(Br)cc34)C2c2cnc(N3CCOCC3)nc2)n1 (stereo not drawn) [Compound 298, 6-bromo-1-[2-(morpholin-4-yl)pyrimidin-5-yl]-2-[4-(trifluoromethyl)pyrimidin-2-yl]-2,3,4,9-tetrahydro-1H-pyrido[3,4-b]indole]
2.2 nM | CN1CCN(c2ccc([C@H]3c4[nH]c5ccc(Cl)cc5c4CCN3c3ncnc(C(F)(F)F)n3)cn2)CC1 [Compound 491, (1S)-6-chloro-1-[6-(4-methylpiperazin-1-yl)pyridin-3-yl]-2-[4-(trifluoromethyl)-1,3,5-triazin-2-yl]-2,3,4,9-tetrahydro-1H-pyrido[3,4-b]indole]
17.1 nM | FC1(F)CN(c2ccnc(N3CCc4c([nH]c5ccc(Cl)cc45)[C@@H]3c3cnc(N4CCOCC4)nc3)n2)C1 [Compound 456, (1S)-6-chloro-2-[4-(3,3-difluoroazetidin-1-yl)pyrimidin-2-yl]-1-[2-(morpholin-4-yl)pyrimidin-5-yl]-2,3,4,9-tetrahydro-1H-pyrido[3,4-b]indole]
2.1 nM | CSc1nc(N2CCc3c([nH]c4ccc(Cl)cc34)[C@@H]2c2cnc(N3CCN(C)CC3)nc2)nc(C(F)(F)F)n1 [Compound 474, (1S)-6-chloro-1-[2-(4-methylpiperazin-1-yl)pyrimidin-5-yl]-2-[4-(methylsulfanyl)-6-(trifluoromethyl)-1,3,5-triazin-2-yl]-2,3,4,9-tetrahydro-1H-pyrido[3,4-b]indole]
27.1 nM | Cc1nc(Cl)nc(N2CCc3c([nH]c4ccc(Cl)cc34)C2c2cnc(N3CCOCC3)nc2)n1 (stereo not drawn) [Compound 289, 6-chloro-2-(4-chloro-6-methyl-1,3,5-triazin-2-yl)-1-[2-(morpholin-4-yl)pyrimidin-5-yl]-2,3,4,9-tetrahydro-1H-pyrido[3,4-b]indole]

The remaining lines, values behind:

Structure (SMILES) | IC50
Fc1cnc(N2CCc3c([nH]c4ccc(Cl)c(F)c34)C2c2cnc(N3CCOCC3)nc2)nc1 (stereo not drawn) [Compound 211, 6-chloro-5-fluoro-2-(5-fluoropyrimidin-2-yl)-1-[2-(morpholin-4-yl)pyrimidin-5-yl]-2,3,4,9-tetrahydro-1H-pyrido[3,4-b]indole] | 4.9 nM
Cc1ccc(C2c3[nH]c4cc(F)c(Cl)cc4c3CCN2c2nccc(C)n2)cc1 (stereo not drawn) [Compound 42, 6-chloro-7-fluoro-1-(4-methylphenyl)-2-(4-methylpyrimidin-2-yl)-2,3,4,9-tetrahydro-1H-pyrido[3,4-b]indole] | 20.3 nM
Cc1nc(N2CCc3c([nH]c4cc(F)c(Cl)cc34)C2c2ccc(F)cc2)ncc1F (stereo not drawn) [Compound 105, 6-chloro-7-fluoro-2-(5-fluoro-4-methylpyrimidin-2-yl)-1-(4-fluorophenyl)-2,3,4,9-tetrahydro-1H-pyrido[3,4-b]indole] | 23.3 nM
Fc1ccc(C2c3[nH]c4cc(F)c(Cl)cc4c3CCN2c2nccc(Cl)n2)cc1 (stereo not drawn) [Compound 15, 6-chloro-2-(4-chloropyrimidin-2-yl)-7-fluoro-1-(4-fluorophenyl)-2,3,4,9-tetrahydro-1H-pyrido[3,4-b]indole] | 32.6 nM
Cc1nc(N2CCc3c([nH]c4cc(F)c(Cl)cc34)C2c2ccc(/C=C/CCO)cc2)ncc1F (stereo not drawn) [Compound 239, (3E)-4-{4-[6-chloro-7-fluoro-2-(5-fluoro-4-methylpyrimidin-2-yl)-2,3,4,9-tetrahydro-1H-pyrido[3,4-b]indol-1-yl]phenyl}but-3-en-1-ol] | 2.5 nM
CN(C)c1ncc(C2c3[nH]c4ccc(Cl)c(F)c4c3CCN2c2ncc(F)cn2)cn1 (stereo not drawn) [Compound 201, 5-[6-chloro-5-fluoro-2-(5-fluoropyrimidin-2-yl)-2,3,4,9-tetrahydro-1H-pyrido[3,4-b]indol-1-yl]-N,N-dimethylpyrimidin-2-amine] | 7.9 nM
Cc1ccc(C2c3[nH]c4cc(F)c(Cl)cc4c3CCN2c2nc(C)c(F)c(C)n2)c(F)c1F (stereo not drawn) [Compound 143, 6-chloro-1-(2,3-difluoro-4-methylphenyl)-7-fluoro-2-(5-fluoro-4,6-dimethylpyrimidin-2-yl)-2,3,4,9-tetrahydro-1H-pyrido[3,4-b]indole] | 1.2 nM
Cc1cc(C)nc(N2CCc3c([nH]c4cc(F)c(Cl)cc34)C2c2ccc(F)cc2)n1 (stereo not drawn) [Compound 19, 6-chloro-2-(4,6-dimethylpyrimidin-2-yl)-7-fluoro-1-(4-fluorophenyl)-2,3,4,9-tetrahydro-1H-pyrido[3,4-b]indole] | 26.3 nM
Fc1cnc(N2CCc3c([nH]c4cc(F)c(Cl)cc34)C2c2ccc(C(F)(F)F)cc2)nc1 (stereo not drawn) [Compound 35, 6-chloro-7-fluoro-2-(5-fluoropyrimidin-2-yl)-1-[4-(trifluoromethyl)phenyl]-2,3,4,9-tetrahydro-1H-pyrido[3,4-b]indole] | 43.2 nM
Cc1ccc(C2c3[nH]c4cc(F)c(Cl)cc4c3CCN2c2nccc(C#N)n2)cc1 (stereo not drawn) [Compound 44, 2-[6-chloro-7-fluoro-1-(4-methylphenyl)-1,3,4,9-tetrahydro-2H-pyrido[3,4-b]indol-2-yl]pyrimidine-4-carbonitrile] | 14.7 nM
Cc1nc(N2CCc3c([nH]c4ccc(Cl)c(F)c34)C2c2ccc(CCCCO)cc2)ncc1F (stereo not drawn) [Compound 246, 4-{4-[6-chloro-5-fluoro-2-(5-fluoro-4-methylpyrimidin-2-yl)-2,3,4,9-tetrahydro-1H-pyrido[3,4-b]indol-1-yl]phenyl}butan-1-ol] | 2.8 nM
CC(C)c1ccc(C2c3[nH]c4cc(F)c(Cl)cc4c3CCN2c2ncc(Cl)cn2)cc1 (stereo not drawn) [Compound 57, 6-chloro-2-(5-chloropyrimidin-2-yl)-7-fluoro-1-[4-(propan-2-yl)phenyl]-2,3,4,9-tetrahydro-1H-pyrido[3,4-b]indole] | 19.9 nM
N#Cc1ccc(C2c3[nH]c4cc(F)c(Cl)cc4c3CCN2c2nccc(Cl)n2)cc1 (stereo not drawn) [Compound 18, 4-[6-chloro-2-(4-chloropyrimidin-2-yl)-7-fluoro-2,3,4,9-tetrahydro-1H-pyrido[3,4-b]indol-1-yl]benzonitrile] | 13.5 nM
OCc1ccc(C2c3[nH]c4cc(F)c(Cl)cc4c3CCN2c2ncc(F)cn2)cc1 (stereo not drawn) [Compound 78, {4-[6-chloro-7-fluoro-2-(5-fluoropyrimidin-2-yl)-2,3,4,9-tetrahydro-1H-pyrido[3,4-b]indol-1-yl]phenyl}methanol] | 46.9 nM
Cc1ccc([C@H]2c3[nH]c4ccc(Cl)c(F)c4c3CCN2c2nc(C)c(F)c(C)n2)c(F)c1F [Compound 189, (1S)-6-chloro-1-(2,3-difluoro-4-methylphenyl)-5-fluoro-2-(5-fluoro-4,6-dimethylpyrimidin-2-yl)-2,3,4,9-tetrahydro-1H-pyrido[3,4-b]indole] | 0.4 nM
